Results taken from patent US7683168B2, “Compositions of novel opioid compounds and method of use thereof” (priority 2005, dated 2010).

Assays:
[1] = molecular target: T1, human delta receptor (Homo sapiens, UniProt P41143); experiment: radioligand binding, human delta receptor, HEK-293 cell membranes; settings: cell not marked (rat), species not given, read-out: δ
T1 construct: purchased Perkin Elmer, Boston, Mass; 6110549; host or cells: HEK-293 cells

[2] = system: mouse vas deferens; experiment: electrically stimulated mouse vas deferens (MVD) ED50; assay type: cell-based; settings: ED50, inhibition of electrically induced contractions
[3] = molecular target: T2, human mu opioid receptor (Homo sapiens, UniProt P35372); experiment: radioligand binding, human mu opioid receptor, CHO cell membranes; settings: species not given, read-out: μ
T2 construct: purchased Perkin Elmer, Boston, Mass; 6110535; host or cells: CHO cells
T2 sequence (P35372 whole entry): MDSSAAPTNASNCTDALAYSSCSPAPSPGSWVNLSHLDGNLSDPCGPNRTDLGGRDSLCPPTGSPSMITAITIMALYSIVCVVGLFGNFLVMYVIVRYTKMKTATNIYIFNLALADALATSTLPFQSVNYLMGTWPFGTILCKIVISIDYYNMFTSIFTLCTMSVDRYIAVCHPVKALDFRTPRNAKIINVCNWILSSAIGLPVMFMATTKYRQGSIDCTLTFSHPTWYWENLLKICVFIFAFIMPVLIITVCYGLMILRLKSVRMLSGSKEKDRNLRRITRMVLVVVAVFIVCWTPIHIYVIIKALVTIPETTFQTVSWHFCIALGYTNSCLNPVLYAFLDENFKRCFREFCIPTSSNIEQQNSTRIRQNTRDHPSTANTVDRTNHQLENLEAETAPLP

T1 sequence (P41143 whole entry): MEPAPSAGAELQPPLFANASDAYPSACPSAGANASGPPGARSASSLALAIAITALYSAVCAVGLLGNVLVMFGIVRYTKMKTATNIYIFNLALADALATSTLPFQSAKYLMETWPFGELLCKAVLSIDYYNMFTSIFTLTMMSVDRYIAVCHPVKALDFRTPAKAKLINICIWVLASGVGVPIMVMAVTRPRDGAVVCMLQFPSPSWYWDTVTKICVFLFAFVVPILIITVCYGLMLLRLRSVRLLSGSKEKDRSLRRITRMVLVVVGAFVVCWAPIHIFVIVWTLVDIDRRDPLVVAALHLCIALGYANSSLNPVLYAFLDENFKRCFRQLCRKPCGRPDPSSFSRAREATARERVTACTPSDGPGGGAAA

| Compound | Ki [1] [nM] | EC50 [2] [nM] | Ki [3] [nM] |
| --- | --- | --- | --- |
| CCOC(=O)CCCN1CCN(C(=O)c2cccc([C@H](c3cccc(O)c3)N3C[C@@H](C)N(Cc4cccc(F)c4)C[C@@H]3C)c2)CC1 [Example 81, 4-(4-{3-[(R)-((2S,5R)-4-(3-Fluorobenzyl)-2,5-dimethyl-piperazin-1-yl)-(3-hydroxy-phenyl)-methyl]-benzoyl}-piperazin-1-yl)-butyric acid ethyl ester] | 12.7 | 44.8 | 4.9 |
| CCOC(=O)CCCN1CCN(C(=O)c2cccc([C@H](c3cccc(O)c3)N3C[C@@H](C)N(CC4CC4)C[C@@H]3C)c2)CC1 [Example 77, 4-(4-{3-[(R)-((2S,5R)-4-Cyclopropylmethyl-2,5-dimethyl-piperazin-1-yl)-(3-hydroxy-phenyl)-methyl]-benzoyl}-piperazin-1-yl)-butyric acid ethyl ester] | 402 | 111 | 4.4 |
| C=CCN1C[C@H](C)N(C(c2cccc(O)c2)c2cccc(C(=O)N3CCCN(CCCCCCC(=O)OCC)CC3)c2)C[C@H]1C (stereo partly shown) | 3.1 | 52.3 | 3.9 |
| CCOC(=O)CCCCCN1CCCN(C(=O)c2cccc(C(c3cccc(O)c3)N3C[C@@H](C)N(Cc4cccc(F)c4)C[C@@H]3C)c2)CC1 (stereo partly shown) | 12.9 | 156 | 58.5 |
| CCOC(=O)CCCCN1CCCN(C(=O)c2cccc(C(c3cccc(O)c3)N3C[C@@H](C)N(CC4CC4)C[C@@H]3C)c2)CC1 (stereo partly shown) | 88.5 | 116 | 29.9 |
| C[C@@H]1CN([C@@H](c2cccc(O)c2)c2cccc(C(=O)N3CCN(CCCCCC(=O)O)CC3)c2)[C@@H](C)CN1CC1CC1 [Example 101, 6-(4-{3-[(R)-((2S,5R)-4-Cyclopropylmethyl-2,5-dimethyl-piperazin-1-yl)-(3-hydroxy-phenyl)-methyl]-benzoyl}-piperazin-1-yl)-hexanoic acid] | – | 75.8 | – |
| CCOC(=O)CCCCCCN1CCCN(C(=O)c2cccc(C(c3cccc(O)c3)N3C[C@@H](C)N(Cc4ccccc4)C[C@@H]3C)c2)CC1 (stereo partly shown) | 2.4 | 28.6 | 3.8 |
| C[C@@H]1CN([C@@H](c2cccc(O)c2)c2cccc(C(=O)N3CCN(Cc4ccc(C(=O)O)cc4)CC3)c2)[C@@H](C)CN1Cc1cccc(O)c1 [Example 104, 4-(4-{3-[(R)-[(2S,5R)-4-(3-Hydroxy-benzyl)-2,5-dimethyl-piperazin-1-yl]-(3-hydroxy-phenyl)-methyl]-benzoyl}-piperazin-1-ylmethyl)-benzoic acid] | 0.99 | 2.06 | 19.4 |
| CCOC(=O)CCCCCN1CCN(C(=O)c2cccc([C@H](c3cccc(O)c3)N3C[C@@H](C)N(Cc4cccc(F)c4)C[C@@H]3C)c2)CC1 [Example 98, 6-(4-{3-[(R)-((2S,5R)-4-(3-Fluorobenzyl)-2,5-dimethyl-piperazin-1-yl)-(3-hydroxy-phenyl)-methyl]-benzoyl}-piperazin-1-yl)-hexanoic acid ethyl ester] | 7.1 | 102 | 8.5 |
| COCCN1C[C@H](C)N([C@@H](c2cccc(O)c2)c2cccc(C(=O)N3CCN(Cc4ccc(C(=O)O)cc4)CC3)c2)C[C@H]1C [Example 105, 4-[4-(3-{(R)-(3-Hydroxy-phenyl)-[(2S,5R)-4-(2-methoxy-ethyl)-2,5-dimethyl-piperazin-1-yl]-methyl}-benzoyl)-piperazin-1-ylmethyl]-benzoic acid] | 32 | 30.6 | 88.6 |
| C[C@@H]1CN(C(c2cccc(O)c2)c2cccc(C(=O)N3CCCN(CCCCCC(=O)O)CC3)c2)[C@@H](C)CN1CC1CC1 (stereo partly shown) | 5.6 | 110 | 20.3 |
| C=CCN1C[C@H](C)N(C(c2cccc(O)c2)c2cccc(C(=O)N3CCCN(CCCCCC(=O)OCC)CC3)c2)C[C@H]1C (stereo partly shown) | 3.2 | 43.3 | 21.3 |
| CCOC(=O)CCCCCCN1CCCN(C(=O)c2cccc(C(c3cccc(O)c3)N3C[C@@H](C)N(CC4CC4)C[C@@H]3C)c2)CC1 (stereo partly shown) | 44.3 | 88.1 | 8 |
| C[C@@H]1CN(C(c2cccc(O)c2)c2cccc(C(=O)N3CCCN(CCCCCCC(=O)O)CC3)c2)[C@@H](C)CN1Cc1ccccc1 (stereo partly shown) | 4.9 | 10.4 | 6.3 |
| C[C@@H]1CN([C@@H](c2cccc(O)c2)c2cccc(C(=O)N3CCN(CC(=O)O)CC3)c2)[C@@H](C)CN1Cc1ccc(F)cc1 [Example 116, (4-{3-[(R)-[(2S,5R)-4-(4-Fluoro-benzyl)-2,5-dimethyl-piperazin-1-yl]-(3-hydroxy-phenyl)-methyl]-benzoyl}-piperazin-1-yl)-acetic acid] | 0.83 | 1.95 | – |
| C[C@@H]1CN(C(c2cccc(O)c2)c2cccc(C(=O)N3CCCN(CC(=O)O)CC3)c2)[C@@H](C)CN1Cc1cccc(F)c1 (stereo partly shown) | – | – | 3.1 |
| C=CCN1C[C@H](C)N(C(c2cccc(O)c2)c2cccc(C(=O)N3CCCN(Cc4ccccc4C(=O)OC)CC3)c2)C[C@H]1C (stereo partly shown) | – | 21.8 | – |
| CCOC(=O)CCCCCCN1CCN(C(=O)c2cccc([C@H](c3cccc(O)c3)N3C[C@@H](C)N(CC4CC4)C[C@@H]3C)c2)CC1 [Example 114, 7-(4-{3-[(R)-((2S,5R)-4-Cyclopropylmethyl-2,5-dimethyl-piperazin-1-yl)-(3-hydroxy-phenyl)-methyl]-benzoyl}-piperazin-1-yl)-heptanoic acid ethyl ester] | – | 221 | – |
| C=CCN1C[C@H](C)N([C@@H](c2cccc(O)c2)c2cccc(C(=O)N3CCN(CCCCCCC(=O)OCC)CC3)c2)C[C@H]1C [Example 108, 7-(4-{3-[(R)-((2S,5R)-4-Allyl-2,5-dimethyl-piperazin-1-yl)-(3-hydroxy-phenyl)-methyl]-benzoyl}-piperazin-1-yl)-heptanoic acid ethyl ester] | – | 31.7 | – |
| CCOC(=O)CCCCCCN1CCN(C(=O)c2cccc([C@H](c3cccc(O)c3)N3C[C@@H](C)N(Cc4cccc(F)c4)C[C@@H]3C)c2)CC1 [Example 112, 7-(4-{3-[(R)-[(2S,5R)-4-(3-Fluoro-benzyl)-2,5-dimethyl-piperazin-1-yl]-(3-hydroxy-phenyl)-methyl]-benzoyl}-piperazin-1-yl)-heptanoic acid ethyl ester] | – | 111 | 5.9 |
| C=CCN1C[C@H](C)N(C(c2cccc(O)c2)c2cccc(C(=O)N3CCCN(Cc4cccc(C(=O)OC)c4)CC3)c2)C[C@H]1C (stereo partly shown) | – | 19.6 | – |
| C[C@@H]1CN([C@@H](c2cccc(O)c2)c2cccc(C(=O)N3CCN(CCCCCCC(=O)O)CC3)c2)[C@@H](C)CN1CC1CC1 [Example 115, 7-(4-{3-[(R)-((2S,5R)-4-Cyclopropylmethyl-2,5-dimethyl-piperazin-1-yl)-(3-hydroxy-phenyl)-methyl]-benzoyl}-piperazin-1-yl)-heptanoic acid] | 22 | 85.8 | – |
| CCOC(=O)CCCCCN1CCN(C(=O)c2cccc([C@H](c3cccc(O)c3)N3C[C@@H](C)N(CC4CC4)C[C@@H]3C)c2)CC1 [Example 100, 6-(4-{3-[(R)-((2S,5R)-4-Cyclopropylmethyl-2,5-dimethyl-piperazin-1-yl)-(3-hydroxy-phenyl)-methyl]-benzoyl}-piperazin-1-yl)-hexanoic acid ethyl ester] | – | 170 | – |
